In PubChem BioAssay AID2060485 (Molecular Pharmacology Branch, DTP, NCI, 2025):

Test system: A375 multi-cell spheroids with HUVEC/MSC, viability
Assay: Anticancer human tumor A375 cell line growth inhibition [GQUAD];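 further: spheroids exposed to compounds for seven days before readout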
Details: for IC50: curve of first compound; for viability, T/C: stronger effect = lower value
Procedure, shortened: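 Multi-cell-type spheroids of tumor cells with HUVEC and mesenchymal stem cells, treated with drug combinations. Concentrations descend in half-log steps from near clinical Cmax, or from 10 microM where Cmax is unknown; viability read-out.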

[1] = second compound 0.0316 µM, first compound 0.0316 µM
[2] = second compound 0.0316 µM, first compound 0.1 µM
[3] = second compound 0.0316 µM, first compound 0.316 µM
[4] = second compound 0.0316 µM, first compound 1 µM
[5] = second compound 0.0316 µM, first compound 3.16 µM
[6] = second compound 0.0316 µM, first compound 10 µM
[7] = second compound 0.1 µM, first compound 0.0316 µM
[8] = second compound 0.1 µM, first compound 0.1 µM
[9] = second compound 0.1 µM, first compound 0.316 µM
[10] = second compound 0.1 µM, first compound 1 µM
[11] = second compound 0.1 µM, first compound 3.16 µM
[12] = second compound 0.1 µM, first compound 10 µM
[13] = second compound 0.316 µM, first compound 0.0316 µM
[14] = second compound 0.316 µM, first compound 0.1 µM
[15] = second compound 0.316 µM, first compound 0.316 µM
[16] = second compound 0.316 µM, first compound 1 µM
[17] = second compound 0.316 µM, first compound 3.16 µM
[18] = second compound 0.316 µM, first compound 10 µM
[19] = second compound 1 µM, first compound 0.0316 µM
[20] = second compound 1 µM, first compound 0.1 µM
[21] = second compound 1 µM, first compound 0.316 µM
[22] = second compound 1 µM, first compound 1 µM
[23] = second compound 1 µM, first compound 3.16 µM
[24] = second compound 1 µM, first compound 10 µM
[25] = second compound 3.16 µM, first compound 0.0316 µM
[26] = second compound 3.16 µM, first compound 0.1 µM
[27] = second compound 3.16 µM, first compound 0.316 µM
[28] = second compound 3.16 µM, first compound 1 µM
[29] = second compound 3.16 µM, first compound 3.16 µM
[30] = second compound 3.16 µM, first compound 10 µM
[31] = second compound 10 µM, first compound 0.0316 µM
[32] = second compound 10 µM, first compound 0.1 µM
[33] = second compound 10 µM, first compound 0.316 µM
[34] = second compound 10 µM, first compound 1 µM
[35] = second compound 10 µM, first compound 3.16 µM
[36] = second compound 10 µM, first compound 10 µM

Structure (SMILES): O=C(NO)c1cnc(N2CCN(S(=O)(=O)c3ccc4ccccc4c3)CC2)nc1 + Cc1[nH]c2ccc(F)cc2c1-c1nc2c3cccnc3c3ncccc3c2[nH]1
- IC50 (second compound 0.0316 µM): 203 nM
- IC50 (second compound 0.1 µM): 445 nM
- IC50 (second compound 0.316 µM): 507 nM
- IC50 (second compound 1 µM): 447 nM
- IC50 (second compound 3.16 µM): 202 nM
- IC50 (second compound 10 µM): 251 nM
- viability, T/C [1]: 104%
- viability, T/C [2]: 113%
- viability, T/C [3]: 13.4%
- viability, T/C [4]: 0.27%
- viability, T/C [5]: 0.25%
- viability, T/C [6]: 0.27%
- viability, T/C [7]: 105%
- viability, T/C [8]: 119%
- viability, T/C [9]: 71%
- viability, T/C [10]: 0.27%
- viability, T/C [11]: 0.8%
- viability, T/C [12]: 0.26%
- viability, T/C [13]: 106%
- viability, T/C [14]: 112%
- viability, T/C [15]: 84.5%
- viability, T/C [16]: 0.24%
- viability, T/C [17]: 0.19%
- viability, T/C [18]: 0.23%
- viability, T/C [19]: 109%
- viability, T/C [20]: 106%
- viability, T/C [21]: 71.3%
- viability, T/C [22]: 0.21%
- viability, T/C [23]: 0.15%
- viability, T/C [24]: 0.23%
- viability, T/C [25]: 96.3%
- viability, T/C [26]: 89.5%
- viability, T/C [27]: 24.7%
- viability, T/C [28]: 0.19%
- viability, T/C [29]: 0.16%
- viability, T/C [30]: 0.22%
- viability, T/C [31]: 111%
- viability, T/C [32]: 105%
- viability, T/C [33]: 36.2%
- viability, T/C [34]: 0.21%
- viability, T/C [35]: 0.21%
- viability, T/C [36]: 0.25%

Structure (SMILES): O=c1[nH]cc(F)c(=O)[nH]1 + Cc1[nH]c2ccc(F)cc2c1-c1nc2c3cccnc3c3ncccc3c2[nH]1
- IC50 (second compound 0.0316 µM): > 10000 nM
- IC50 (second compound 0.1 µM): > 10000 nM
- IC50 (second compound 0.316 µM): > 10000 nM
- IC50 (second compound 1 µM): > 10000 nM
- IC50 (second compound 3.16 µM): > 10000 nM
- IC50 (second compound 10 µM): > 10000 nM
- viability, T/C [1]: 102%
- viability, T/C [2]: 99%
- viability, T/C [3]: 109%
- viability, T/C [4]: 105%
- viability, T/C [5]: 97.9%
- viability, T/C [6]: 92.9%
- viability, T/C [7]: 106%
- viability, T/C [8]: 93.2%
- viability, T/C [9]: 105%
- viability, T/C [10]: 114%
- viability, T/C [11]: 103%
- viability, T/C [12]: 101%
- viability, T/C [13]: 96%
- viability, T/C [14]: 92.9%
- viability, T/C [15]: 102%
- viability, T/C [16]: 95.2%
- viability, T/C [17]: 112%
- viability, T/C [18]: 103%
- viability, T/C [19]: 101%
- viability, T/C [20]: 103%
- viability, T/C [21]: 111%
- viability, T/C [22]: 97.6%
- viability, T/C [23]: 115%
- viability, T/C [24]: 102%
- viability, T/C [25]: 83.9%
- viability, T/C [26]: 90.9%
- viability, T/C [27]: 93.6%
- viability, T/C [28]: 88.4%
- viability, T/C [29]: 101%
- viability, T/C [30]: 80.3%
- viability, T/C [31]: 88.2%
- viability, T/C [32]: 81.6%
- viability, T/C [33]: 111%
- viability, T/C [34]: 104%
- viability, T/C [35]: 96.3%
- viability, T/C [36]: 77.4%
